Laboratory results published in ChEMBL document CHEMBL4616656, “Diisonitrile-Mediated Reactive Oxygen Species Accumulation Leads to Bacterial Growth Inhibition” (J Nat Prod, 2020).
Activity calls are given as the source filed them. No cut-off for these calls is given here.

What was measured:
[1] = system: Bacillus subtilis subsp. subtilis str. 168; test: Copper chelating activity in Bacillus subtilis 168 assessed as reduction in cytochrome c oxidase activity by measuring increase in ROS level at 10 uM measured over 40 mins by H2DCFDA staining based fluorescence method relative to control
Bacillus subtilis [2] = test: Antibacterial activity against Bacillus subtilis 168 at 10 uM after 12 hrs relative to control; format: functional
Mushroom tyrosinase = Mushroom tyrosinase (Agaricus bisporus, UniProt O42713+Q00024+C7FF04+C7FF05); test: Inhibition of mushroom tyrosinase using L-DOPA as substrate preincubated for 10 mins followed by substrate addition and measured after 15 mins by spectrophotometric method
[3] = system: Bacillus subtilis subsp. subtilis str. 168; test: Copper chelating activity in Bacillus subtilis 168 assessed as reduction in cellular copper content at 100 uM incubated for 1 hr by ICP-MS analysis relative to control; parameters: scale not given: the % may be the effect or the level left
[4] = system: Bacillus subtilis subsp. subtilis str. 168; test: Copper chelating activity in Bacillus subtilis 168 assessed as reduction in cytochrome c oxidase activity by measuring decrease in intracellular ATP level at 10 uM incubated for 15 to 90 mins by bioluminescence method relative to control; format: cell-based; parameters: scale not given: the % may be the effect or the level left
Enterococcus faecalis = test: Antibacterial activity against Enterococcus faecalis ATCC 29212 at 10 uM after 12 hrs relative to control; format: functional
Klebsiella pneumoniae = test: Antibacterial activity against Klebsiella pneumoniae CMCC 46117 at 10 uM after 12 hrs relative to control; format: functional
Pseudomonas aeruginosa = test: Antibacterial activity against Pseudomonas aeruginosa ATCC 27853 at 10 uM after 12 hrs relative to control; format: functional
Escherichia coli = test: Antibacterial activity against Escherichia coli BL21 at 10 uM after 12 hrs relative to control; format: functional
Staphylococcus aureus = test: Antibacterial activity against Staphylococcus aureus ATCC 43300 at 10 uM after 12 hrs relative to control; format: functional
Bacillus subtilis [5] = test: Antibacterial activity against Bacillus subtilis 168 in presence of CuCl2 by paper disk assay; format: functional, organism-based; details: subsp. subtilis str. 168
Bacillus subtilis [6] = test: Antibacterial activity against Bacillus subtilis 168 in presence of Fe3+ by paper disk assay; format: functional, organism-based; details: subsp. subtilis str. 168
[7] = system: Acinetobacter baumannii ATCC 19606 = CIP 70.34 = JCM 6841; test: Copper chelating activity in Acinetobacter baumannii ATCC 19606 assessed as increase in ROS level at 10 uM measured over 40 mins by H2DCFDA staining based fluorescence method
Acinetobacter baumannii = test: Antibacterial activity against Acinetobacter baumannii ATCC 19606 at 10 uM after 12 hrs relative to control; format: functional, ATCC 19606 = CIP 70.34 = JCM 6841
Bacillus subtilis [8] = test: Antibacterial activity against Bacillus subtilis 168 in presence of Fe2+ by paper disk assay; format: functional, organism-based; details: subsp. subtilis str. 168
Bacillus subtilis [9] = test: Antibacterial activity against Bacillus subtilis 168 assessed as inhibition rate at 100 uM after 12 hrs relative to control; format: functional; details: subsp. subtilis str. 168, 12 h
Bacillus subtilis [10] = test: microbe, parasite or virus in culture; details: subsp. subtilis str. 168, 12 h
Description: Antibacterial activity against Bacillus subtilis 168 after 12 hrs

[11] = Bacillus subtilis subsp. subtilis str. 168

Row | Compound | Activity [1] | Activity (Bacillus subtilis [2]; [11]) | other results
1 | C[C@H](CC(=O)N[C@H]1CC[C@@H](CNC(=O)C[C@@H](C)C#N)OC1O)NC=O (stereo partly specified) | inactive | inactive | 
2 | CC(=O)OC[C@H](CCCCNC(=O)C[C@@H](C)C#N)NC(=O)C[C@@H](C)C#N | Active | Active | IC50 (Mushroom tyrosinase): 89.6 µM
3 | C[C@H](CC(=O)NC[C@@H]1CC[C@H](NC(=O)C[C@@H](C)NC=O)C(O)O1)NC=O (stereo partly specified) | inactive | inactive | 
4 | CC(C)CCC(=O)NC[C@@H]1CC[C@H](NC(=O)C[C@@H](C)C#N)C(O)O1 (stereo partly specified) | inactive | inactive | 
5 | CC(C#N)CC(=O)NC[C@@H]1CC[C@H](NC(=O)C[C@@H](C)C#N)C(O)O1 (stereo partly specified) |  |  | Activity [3]: 24%; Activity [4]: 20%; Activity (Enterococcus faecalis): 20 - 30%; fold change (FC) [1]: 9; Activity (Klebsiella pneumoniae): 20 - 30%; Activity (Pseudomonas aeruginosa): 20 - 30%; Activity (Escherichia coli): 20 - 30%; Activity (Staphylococcus aureus): 20 - 30%; Activity (Bacillus subtilis [5]): inactive; Activity (Bacillus subtilis [6]): Active; Activity [7]: Active; Activity (Acinetobacter baumannii): 57%; Activity (Bacillus subtilis [8]): Active; inhibition at 100 µM (Bacillus subtilis [9]): 56 to 60%; Activity (Bacillus subtilis [2]): 50%; IC50 (Mushroom tyrosinase): 89.6 µM
6 | CC(C)=CCC(=O)NC[C@@H]1CC[C@H](NC(=O)C[C@@H](C)C#N)C(O)O1 (stereo partly specified) | inactive | inactive | 
7 | C[C@H](CC(=O)N[C@H](CO)CCCCNC(=O)C[C@@H](C)C#N)NC=O | inactive | inactive | 
8 | CC(C)CC(=O)NC[C@@H]1CC[C@H](NC(=O)CC(C)C)C(O)O1 (stereo partly specified) | inactive | inactive | 
9 | C[C@H](CC(=O)NCCCC[C@@H](CO)NC(=O)C[C@@H](C)NC=O)NC=O | inactive | inactive | 
10 | COc1cc(Cc2cnc(N)nc2N)cc(OC)c1OC [TRIMETHOPRIM] |  |  | IC50 (Bacillus subtilis [10]): 0.3 µM
11 | C[C@H](CC(=O)NCCCC[C@@H](CO)NC(=O)C[C@@H](C)C#N)NC=O | inactive | inactive | 
12 | CC(=O)OC[C@H](CCCCNC(=O)C[C@@H](C)NC=O)NC(=O)C[C@@H](C)NC=O | inactive | inactive | 
13 | C[C@@H](C#N)CC(=O)NCCCC[C@@H](CO)NC(=O)C[C@@H](C)C#N | Active | Active | IC50 (Mushroom tyrosinase): 89.6 µM
